Results taken from patent US11623919B2, “Heterocyclic P2X7 antagonists” (AXXAM S.P.A., priority 2017, dated 2023).

Columns and labels:
Test in all cases: Screen Quest Fluo-8 No Wash Calcium Assay (Bz-ATP evoked Ca2+ influx, FLIPR)
Type in all cases: cell-based
P2X7 receptor [1] = biological target: T1, P2X7 receptor (Mus musculus, UniProt Q9Z1M0); conditions: mP2X7; HEK-293 cells stably transfected with P2X7 receptor, Bz-ATP at EC80, Fluo-8 NW; potency ranges A-D
T1 construct: mP2X7 (IC50; nM); other: mP2X7; HEK-293 cells stably transfected with P2X7 receptor, Bz-ATP at EC80, Fluo-8 NW; potency
T1 sequence (Q9Z1M0 1-595): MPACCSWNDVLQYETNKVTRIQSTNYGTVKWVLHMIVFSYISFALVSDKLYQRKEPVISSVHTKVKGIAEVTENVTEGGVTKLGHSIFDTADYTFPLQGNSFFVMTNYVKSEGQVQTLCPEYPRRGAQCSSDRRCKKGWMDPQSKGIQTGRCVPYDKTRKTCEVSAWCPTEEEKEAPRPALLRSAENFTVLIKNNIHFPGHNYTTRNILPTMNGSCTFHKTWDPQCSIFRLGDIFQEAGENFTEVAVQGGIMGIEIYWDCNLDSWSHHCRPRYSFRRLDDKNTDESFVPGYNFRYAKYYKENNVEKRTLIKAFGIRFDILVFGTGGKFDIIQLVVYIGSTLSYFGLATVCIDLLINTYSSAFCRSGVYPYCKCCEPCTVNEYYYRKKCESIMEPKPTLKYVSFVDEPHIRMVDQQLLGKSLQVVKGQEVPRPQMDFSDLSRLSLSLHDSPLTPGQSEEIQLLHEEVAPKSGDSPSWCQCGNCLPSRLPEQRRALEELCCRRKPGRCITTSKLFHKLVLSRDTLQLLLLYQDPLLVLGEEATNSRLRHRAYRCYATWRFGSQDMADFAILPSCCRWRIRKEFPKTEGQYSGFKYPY
Protocol: (§1) Extracellular binding of Bz-ATP to P2X7 receptor opens the channel and allows Ca2+ influx into the cells. […] Once inside the cell, the lipophilic blocking groups of Fluo-8 are cleaved by non-specific cell esterases, resulting in a negatively-charged fluorescent dye that stays inside cells. Its fluorescence increases upon binding to calcium.
(§2) HEK-293 cells stably transfected with P2X7 receptor were seeded overnight in growth medium at 10,000 to 20,000 cell/well in 384-well plate. 24 hours later, the medium was removed and the cells were pre-loaded at RT for 1 hour with 20 μL/w of Fluo-8 NW. Then 10 μL/w of tests compounds and reference antagonist A438079 at 3×-concentration were injected with the […] and the kinetic response over a period of five minutes was monitored. A second injection of 15 μL/w of 3× reference activator (Bz-ATP at EC80) was performed with the […] and the signal of the emitted fluorescence was recorded for additional three minutes. All the experiment was carried out in a Low Divalent Cation Assay Buffer (0.3 mM Ca^2+ and 0 mM Mg^2+). The effect of the test compounds was measured as percent inhibition vs the reference antagonist and IC50 values were calculated accordingly.

P2X7 receptor [2] = biological target: T2, P2X7 receptor (Rattus norvegicus, UniProt Q64663); conditions: rP2X7; HEK-293 cells stably transfected with P2X7 receptor, Bz-ATP at EC80, Fluo-8 NW; potency ranges A-D
T2 construct: rP2X7 (IC50; nM); other: rP2X7; HEK-293 cells stably transfected with P2X7 receptor, Bz-ATP at EC80, Fluo-8 NW; potency
T2 sequence (Q64663 1-595): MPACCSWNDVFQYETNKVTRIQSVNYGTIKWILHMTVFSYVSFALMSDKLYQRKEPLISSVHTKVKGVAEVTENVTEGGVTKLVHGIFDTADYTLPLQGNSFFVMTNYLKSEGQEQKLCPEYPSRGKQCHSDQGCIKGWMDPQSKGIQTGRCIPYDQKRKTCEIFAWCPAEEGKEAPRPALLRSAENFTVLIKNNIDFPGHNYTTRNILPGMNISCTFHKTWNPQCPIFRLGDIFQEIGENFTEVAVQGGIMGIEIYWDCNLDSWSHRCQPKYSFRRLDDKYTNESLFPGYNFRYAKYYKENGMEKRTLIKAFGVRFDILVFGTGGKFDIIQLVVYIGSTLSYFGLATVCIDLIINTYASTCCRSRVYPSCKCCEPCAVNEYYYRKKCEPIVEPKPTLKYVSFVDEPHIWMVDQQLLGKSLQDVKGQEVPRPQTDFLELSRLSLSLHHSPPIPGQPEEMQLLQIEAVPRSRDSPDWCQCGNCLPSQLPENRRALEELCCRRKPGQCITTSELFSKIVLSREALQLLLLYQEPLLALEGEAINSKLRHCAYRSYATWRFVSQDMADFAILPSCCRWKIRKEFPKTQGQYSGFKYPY
Protocol: as §1, §2

P2X7 receptor [3] = biological target: T3, P2X7 receptor (Homo sapiens, UniProt Q99572); parameters: hP2X7 (IC50; nM); other: hP2X7; HEK-293 cells stably transfected with P2X7 receptor, Bz-ATP at EC80, Fluo-8 NW; potency; conditions: hP2X7; HEK-293 cells stably transfected with P2X7 receptor, Bz-ATP at EC80, Fluo-8 NW; potency ranges A-D
T3 sequence (Q99572 1-595): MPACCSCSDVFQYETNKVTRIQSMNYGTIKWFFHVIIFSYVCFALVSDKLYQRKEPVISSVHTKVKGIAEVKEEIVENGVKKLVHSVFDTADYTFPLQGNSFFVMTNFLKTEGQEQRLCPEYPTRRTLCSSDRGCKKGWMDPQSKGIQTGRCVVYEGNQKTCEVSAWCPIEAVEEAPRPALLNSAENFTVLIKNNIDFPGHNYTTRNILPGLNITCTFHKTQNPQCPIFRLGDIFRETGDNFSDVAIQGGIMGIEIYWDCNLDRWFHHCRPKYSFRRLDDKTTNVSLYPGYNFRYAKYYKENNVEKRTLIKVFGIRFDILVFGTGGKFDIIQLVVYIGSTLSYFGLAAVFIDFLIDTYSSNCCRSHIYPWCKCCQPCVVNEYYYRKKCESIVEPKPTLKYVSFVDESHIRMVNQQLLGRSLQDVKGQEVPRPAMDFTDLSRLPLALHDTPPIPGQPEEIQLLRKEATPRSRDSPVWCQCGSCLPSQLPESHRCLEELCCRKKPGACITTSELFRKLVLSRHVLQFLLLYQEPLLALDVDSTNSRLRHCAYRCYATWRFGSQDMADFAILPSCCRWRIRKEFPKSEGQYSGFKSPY
Protocol: as §1, §2

SMILES | IC50 (P2X7 receptor [1]) | IC50 (P2X7 receptor [2]) | IC50 (P2X7 receptor [3])
O=c1onc(Cc2c(F)cccc2Cl)n1Cc1cccnc1 [Example 42, 3-[(2-chloro-6-fluorophenyl)methyl]-4-(pyridin-3-ylmethyl)-4,5-dihydro-1,2,4-oxadiazol-5-one] | > 10000 nM | > 10000 nM | > 10000 nM
O=c1onc(Cc2c(F)cccc2Cl)n1Cc1ccncc1 [Example 43, 3-[(2-chloro-6-fluorophenyl)methyl]-4-(pyridin-4-ylmethyl)-4,5-dihydro-1,2,4-oxadiazol-5-one] | > 10000 nM | > 10000 nM | > 10000 nM
O=c1onc(Cc2c(F)cccc2Cl)n1Cc1ccoc1 [Example 44, 3-[(2-chloro-6-fluorophenyl)methyl]-4-(furan-3-ylmethyl)-4,5-dihydro-1,2,4-oxadiazol-5-one] | > 10000 nM | 1000 to 10000 nM | 1000 to 10000 nM
O=c1onc(Cc2c(F)cccc2Cl)n1Cc1ncc(F)cn1 [Example 45, 3-[(2-chloro-6-fluorophenyl)methyl]-4-[(5-fluoropyrimidin-2-yl)methyl]-4,5-dihydro-1,2,4-oxadiazol-5-one] | > 10000 nM | > 10000 nM | > 10000 nM
Cc1cc(Cn2c(Cc3c(F)cccc3Cl)noc2=O)n(C)n1 [Example 46, 3-[(2-chloro-6-fluorophenyl)methyl]-4-[(1,3-dimethyl-1H-pyrazol-5-yl)methyl]-4,5-dihydro-1,2,4-oxadiazol-5-one] | > 10000 nM | > 10000 nM | > 10000 nM
Cn1ccnc1Cn1c(Cc2c(F)cccc2Cl)noc1=O [Example 47, 3-[(2-chloro-6-fluorophenyl)methyl]-4-[(1-methyl-1H-imidazol-2-yl)methyl]-4,5-dihydro-1,2,4-oxadiazol-5-one] | > 10000 nM | > 10000 nM | > 10000 nM
O=c1onc(Cc2ccc(F)cc2)n1Cc1cccc(Cl)c1Cl [Example 50, 4-[(2,3-dichlorophenyl)methyl]-3-[(4-fluorophenyl)methyl]-4,5-dihydro-1,2,4-oxadiazol-5-one] | > 10000 nM | > 10000 nM | > 10000 nM
O=c1onc(Cc2ccc(F)cc2)n1Cc1ccc(F)cc1Cl [Example 51, 4-[(2-chloro-4-fluorophenyl)methyl]-3-[(4-fluorophenyl)methyl]-4,5-dihydro-1,2,4-oxadiazol-5-one] | 1000 to 10000 nM | 1000 to 10000 nM | 1000 to 10000 nM
O=c1onc(Cc2ccc(F)cc2)n1Cc1cccc(C(F)(F)F)c1Cl [Example 52, 4-{[2-chloro-3-(trifluoromethyl)phenyl]methyl}-3-[(4-fluorophenyl)methyl]-4,5-dihydro-1,2,4-oxadiazol-5-one] | > 10000 nM | > 10000 nM | > 10000 nM
O=c1onc(Cc2ccc(F)cc2)n1Cc1ccc(F)cc1F [Example 53, 4-[(2,4-difluorophenyl)methyl]-3-[(4-fluorophenyl)methyl]-4,5-dihydro-1,2,4-oxadiazol-5-one] | > 10000 nM | 200 to 1000 nM | > 10000 nM

Second part, the compound after the results:

IC50 (P2X7 receptor [1]) | IC50 (P2X7 receptor [2]) | IC50 (P2X7 receptor [3]) | SMILES
> 10000 nM | > 10000 nM | 1000 to 10000 nM | O=c1onc(Cc2ccc(F)cc2)n1Cc1ccc(F)cc1 [Example 54, bis[(4-fluorophenyl)methyl]-4,5-dihydro-1,2,4-oxadiazol-5-one]
1000 to 10000 nM | 1000 to 10000 nM | 1000 to 10000 nM | O=c1onc(Cc2c(F)cccc2Cl)n1Cc1ccccc1F [Example 56, 3-[(2-chloro-6-fluorophenyl)methyl]-4-[(2-fluorophenyl)methyl]-4,5-dihydro-1,2,4-oxadiazol-5-one]
1000 to 10000 nM | 1000 to 10000 nM | 1000 to 10000 nM | COc1cccc(Cn2c(Cc3c(F)cccc3Cl)noc2=O)c1 [Example 57, 3-[(2-chloro-6-fluorophenyl)methyl]-4-[(3-methoxyphenyl)methyl]-4,5-dihydro-1,2,4-oxadiazol-5-one]
1000 to 10000 nM | 1000 to 10000 nM | 1000 to 10000 nM | O=c1onc(Cc2c(F)cccc2Cl)n1Cc1cccc(C(F)(F)F)c1Cl [Example 58, 4-{[2-chloro-3-(trifluoromethyl)phenyl]methyl}-3-[(2-chloro-6-fluorophenyl)methyl]-4,5-dihydro-1,2,4-oxadiazol-5-one]
> 10000 nM | > 10000 nM | > 10000 nM | O=c1onc(Cc2c(F)cccc2Cl)n1Cc1ccccn1 [Example 62, 3-[(2-chloro-6-fluorophenyl)methyl]-4-(pyridin-2-ylmethyl)-4,5-dihydro-1,2,4-oxadiazol-5-one]
1000 to 10000 nM | 1000 to 10000 nM | 1000 to 10000 nM | O=c1onc(Cc2c(F)cccc2Cl)n1Cc1ccc(C(F)(F)F)cc1 [Example 63, 3-[(2-chloro-6-fluorophenyl)methyl]-4-{[4-(trifluoromethyl)phenyl]methyl}-4,5-dihydro-1,2,4-oxadiazol-5-one]
> 10000 nM | > 10000 nM | 1000 to 10000 nM | Cc1nc(C(F)(F)F)ccc1Cn1c(Cc2c(F)cccc2Cl)noc1=O [Example 64, 3-[(2-chloro-6-fluorophenyl)methyl]-4-{[2-methyl-6-(trifluoromethyl)pyridin-3-yl]methyl}-4,5-dihydro-1,2,4-oxadiazol-5-one]
1000 to 10000 nM | 1000 to 10000 nM | 1000 to 10000 nM | Cc1ccc(Cn2c(Cc3c(F)cccc3Cl)noc2=O)cc1 [Example 67, 3-[(2-chloro-6-fluorophenyl)methyl]-4-[(4-methylphenyl)methyl]-4,5-dihydro-1,2,4-oxadiazol-5-one]
> 10000 nM | > 10000 nM | 1000 to 10000 nM | COc1ccc(Cn2c(Cc3c(F)cccc3Cl)noc2=O)cc1 [Example 68, 3-[(2-chloro-6-fluorophenyl)methyl]-4-[(4-methoxyphenyl)methyl]-4,5-dihydro-1,2,4-oxadiazol-5-one]
